Test results from ChEMBL document CHEMBL4308906, “Design and synthesis of selective CYP1B1 inhibitor via dearomatization of α-naphthoflavone” (Bioorg Med Chem, 2019).

How the values were obtained:
CYP1A1 = biological target: T1, CYP1A1 (Homo sapiens, UniProt P04798); assay: Inhibition of human recombinant CYP1A1 using 7-ethoxyresorufin as substrate assessed as percent enzyme activity at 1 uM after 15 mins in presence of NADPH by EROD assay relative to control; type: ADME; parameters: scale not given: the % may be the effect or the level left; conditions: recombinant CYP1A1, probe 7-ethoxyresorufin, read-out: Activity
T1 sequence (P04798 whole entry): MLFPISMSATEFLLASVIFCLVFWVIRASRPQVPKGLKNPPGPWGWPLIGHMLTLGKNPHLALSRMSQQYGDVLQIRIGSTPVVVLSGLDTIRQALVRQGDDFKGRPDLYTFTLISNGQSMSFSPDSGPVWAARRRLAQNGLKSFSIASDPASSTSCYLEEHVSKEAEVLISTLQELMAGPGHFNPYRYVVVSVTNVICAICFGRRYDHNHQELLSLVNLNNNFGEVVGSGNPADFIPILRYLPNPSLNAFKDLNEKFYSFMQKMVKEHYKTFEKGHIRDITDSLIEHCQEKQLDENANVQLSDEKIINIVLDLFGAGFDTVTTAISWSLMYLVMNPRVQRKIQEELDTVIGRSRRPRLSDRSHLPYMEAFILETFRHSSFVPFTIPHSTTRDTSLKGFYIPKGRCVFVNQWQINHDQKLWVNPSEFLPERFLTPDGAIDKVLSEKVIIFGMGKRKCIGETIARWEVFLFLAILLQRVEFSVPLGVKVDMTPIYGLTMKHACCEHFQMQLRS

Cytochrome P450 1B1 [1] = biological target: T2, Cytochrome P450 1B1 (Homo sapiens, UniProt Q16678); assay: Binding affinity to human C-terminal 4His-tagged CYP1B1 expressed in Escherichia coli DH5alpha assessed as spectral dissociation constant by spectrophotometric analysis; conditions: read-out: Ks
T2 sequence (Q16678 whole entry): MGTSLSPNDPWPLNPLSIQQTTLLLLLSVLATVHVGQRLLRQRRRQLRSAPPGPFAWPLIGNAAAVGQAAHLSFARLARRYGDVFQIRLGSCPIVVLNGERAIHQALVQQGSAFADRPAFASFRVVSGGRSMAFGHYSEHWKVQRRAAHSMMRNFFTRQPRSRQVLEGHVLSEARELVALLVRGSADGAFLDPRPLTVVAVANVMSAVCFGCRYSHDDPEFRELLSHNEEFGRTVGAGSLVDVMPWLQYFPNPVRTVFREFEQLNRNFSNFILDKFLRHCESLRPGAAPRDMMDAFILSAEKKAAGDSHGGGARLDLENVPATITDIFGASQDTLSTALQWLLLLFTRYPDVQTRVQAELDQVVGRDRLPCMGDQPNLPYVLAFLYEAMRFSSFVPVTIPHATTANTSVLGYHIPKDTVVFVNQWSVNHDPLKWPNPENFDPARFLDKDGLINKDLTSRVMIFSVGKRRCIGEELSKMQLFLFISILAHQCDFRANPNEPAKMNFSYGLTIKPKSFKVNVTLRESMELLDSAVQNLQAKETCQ

Cytochrome P450 1B1 [2] = biological target: T2, Cytochrome P450 1B1; assay: Inhibition of human recombinant CYP1B1 using 7-ethoxyresorufin as substrate assessed as percent enzyme activity at 1 uM after 30 mins in presence of NADPH by EROD assay relative to control; parameters: scale not given: the % may be the effect or the level left; conditions: read-out: Activity
CYP1A2 = biological target: T3, CYP1A2 (Homo sapiens, UniProt P05177); assay: Inhibition of human recombinant CYP1A2 using 7-ethoxyresorufin as substrate assessed as percent enzyme activity at 1 uM after 30 mins in presence of NADPH by EROD assay relative to control; type: ADME; parameters: scale not given: the % may be the effect or the level left; conditions: recombinant CYP1A2, probe 7-ethoxyresorufin, read-out: Activity
T3 sequence (P05177 whole entry): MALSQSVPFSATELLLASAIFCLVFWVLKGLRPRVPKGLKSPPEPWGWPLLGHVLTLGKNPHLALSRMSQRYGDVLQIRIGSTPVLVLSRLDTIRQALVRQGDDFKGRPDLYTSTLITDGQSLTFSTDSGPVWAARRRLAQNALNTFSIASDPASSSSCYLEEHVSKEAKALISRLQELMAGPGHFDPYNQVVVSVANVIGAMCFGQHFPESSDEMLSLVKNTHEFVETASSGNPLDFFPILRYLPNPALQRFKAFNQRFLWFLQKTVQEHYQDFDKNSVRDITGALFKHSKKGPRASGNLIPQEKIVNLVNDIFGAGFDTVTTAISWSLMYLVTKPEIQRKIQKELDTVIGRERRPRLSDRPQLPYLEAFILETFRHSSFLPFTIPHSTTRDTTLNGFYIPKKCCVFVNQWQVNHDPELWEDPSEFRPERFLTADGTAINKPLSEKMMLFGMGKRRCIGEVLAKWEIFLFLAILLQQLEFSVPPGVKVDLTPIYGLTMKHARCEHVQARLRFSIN

Row | SMILES | activity at 0.25 h, 1 µM (CYP1A1) | Kd (Cytochrome P450 1B1 [1]) | activity at 0.5 h, 1 µM (Cytochrome P450 1B1 [2]) | activity at 0.5 h, 1 µM (CYP1A2)
1 | C#C[C@H]1CC[C@@H](c2cc(=O)c3ccc4ccccc4c3o2)CC1 | 11.3% | 7.3 µM | 0.9% | 21%
2 | CC(C)C1CCC(c2cc(=O)c3ccc4ccccc4c3o2)CC1 (mixture of isomers) | 48.3% | 124 µM | 27.9% | –
3 | CN(C)C(=O)Sc1ccc(-c2cc(=O)c3ccc4ccccc4c3o2)cc1 | 10.3% | – | 12.3% | 91.9%
4 | O=c1cc(C2CCC(CO)CC2)oc2c1ccc1ccccc12 (mixture of isomers) | 85.9% | – | 56.9% | 92.7%
5 | c1c[nH]cn1 [IMIDAZOLE] | – | 1260 µM | – | –
6 | O=c1cc([C@H]2CC[C@@H](O)CC2)oc2c1ccc1ccccc12 | 87.3% | > 1220 µM | 90.4% | 77.3%
7 | CN(C)C(=S)Oc1ccc(-c2cc(=O)c3ccc4ccccc4c3o2)cc1 | 17.6% | – | 15.1% | 96.9%
8 | CN(C)C(=O)Sc1cccc(-c2cc(=O)c3ccc4ccccc4c3o2)c1 | 3.8% | – | 2.4% | 68.7%
9 | O=c1cc([C@@H]2CCC[C@@H](O)C2)oc2c1ccc1ccccc12 (relative stereo) | 78% | – | 72.9% | 73.9%
10 | O=c1cc(C2CCCC2)oc2c1ccc1ccccc12 | 28% | – | 55.3% | 34.5%
11 | Nc1cccc(-c2cc(=O)c3ccc4ccccc4c3o2)c1 | 7.6% | – | 0.2% | -3.5%
12 | O=c1cc([C@H]2C[C@H]3C=C[C@@H]2C3)oc2c1ccc1ccccc12 | 43% | – | 74% | 0%
13 | Nc1ccc(-c2cc(=O)c3ccc4ccccc4c3o2)cc1 | 2.1% | – | -1.2% | -16.3%
14 | N[C@H]1CC[C@H](c2cc(=O)c3ccc4ccccc4c3o2)CC1 | 84.2% | – | 89.5% | 95.4%
15 | N[C@H]1CC[C@@H](c2cc(=O)c3ccc4ccccc4c3o2)CC1 | 73.7% | – | 81.6% | 74.5%
16 | CS(=O)(=O)OCC1CCC(c2cc(=O)c3ccc4ccccc4c3o2)CC1 (racemic) | 78.1% | – | 50.1% | 96.4%
17 | CS(=O)(=O)O[C@H]1CC[C@@H](c2cc(=O)c3ccc4ccccc4c3o2)CC1 | 66.1% | – | 51.5% | 57.7%

Row | SMILES | activity at 0.25 h, 1 µM (CYP1A1) | Kd (Cytochrome P450 1B1 [1]) | activity at 0.5 h, 1 µM (Cytochrome P450 1B1 [2]) | activity at 0.5 h, 1 µM (CYP1A2)
18 | CS(=O)(=O)O[C@H]1CCC[C@@H](c2cc(=O)c3ccc4ccccc4c3o2)C1 (relative stereo) | 38.6% | – | 80.5% | 79.1%
19 | CS(=O)(=O)O[C@@H]1CCC[C@@H](c2cc(=O)c3ccc4ccccc4c3o2)C1 (relative stereo) | 66.5% | – | 59.9% | 69.1%
20 | CS(=O)(=O)O[C@H]1CC[C@H](c2cc(=O)c3ccc4ccccc4c3o2)CC1 | 69.9% | – | 72.5% | 80.3%
21 | O=c1cc(C2=CCCCC2)oc2c1ccc1ccccc12 | 3.2% | 1.1 µM | -12.9% | 21.2%
22 | O=c1cc(-c2cccc(S)c2)oc2c1ccc1ccccc12 | 18.7% | – | 9.8% | 56.2%
23 | O=c1cc([C@H]2C[C@@H]3C=C[C@H]2C3)oc2c1ccc1ccccc12 | 61% | – | 83% | 34%
24 | O=c1cc([C@H]2CC[C@H](O)CC2)oc2c1ccc1ccccc12 | 72.7% | 62.7 µM | 51.3% | 76.2%
25 | O=c1cc(-c2ccc(S)cc2)oc2c1ccc1ccccc12 | 71.3% | – | 54.3% | 106%
26 | O=c1cc(C23CC4CC(CC(C4)C2)C3)oc2c1ccc1ccccc12 | 53.9% | – | 89% | 77.8%
27 | O=c1cc(-c2cccc(O)c2)oc2c1ccc1ccccc12 | 8.2% | – | 1.6% | 37.2%
28 | C#C[C@H]1CC[C@H](c2cc(=O)c3ccc4ccccc4c3o2)CC1 | 0.5% | 264 µM | 15% | 8.8%
29 | CN(C)C(=S)Oc1cccc(-c2cc(=O)c3ccc4ccccc4c3o2)c1 | 3.1% | – | 2.5% | 75.4%
30 | O=c1cc(C2CC=CCC2)oc2c1ccc1ccccc12 (stereo unspecified) | 38.1% | 3.1 µM | 6.5% | 36.9%
31 | CC(=O)SC1CCCC(c2cc(=O)c3ccc4ccccc4c3o2)C1 (mixture of isomers) | 31.7% | – | 4.4% | 0.5%
32 | O=c1cc([C@@H]2CCC[C@H](O)C2)oc2c1ccc1ccccc12 (relative stereo) | 71.3% | – | 79.4% | 68.2%
33 | COc1cccc(-c2cc(=O)c3ccc4ccccc4c3o2)c1 | 8.7% | – | 1.9% | 6.1%
34 | COc1ccc(-c2cc(=O)c3ccc4ccccc4c3o2)cc1 | 4% | – | -0.5% | 15.9%
